Entries after “also recorded” stand apart in the source; their conditions may differ. Non-standard residues stand in square brackets, D forms with d. No end group written: not given here. hSer = N[C@@H](CCO)C(=O)O

In one assay the test system is microorganisms. Kind of assay: antimicrobial activity, microbicidal or microbial inhibition assays (overall statements). Particulars: overall statement, microorganism not specified. In kind it is cell-based. On the procedure: (§1) The antimicrobial activity of the indolicidin analogs was determined using microbicidal or microbial inhibition assays. The indolicidin analogs initially were characterized using a microbial inhibition method, including a modified plate diffusion assay (Hultmark et al., EMBO J. 2:571-573 (1983); Lehrer et al., J. Immunol. Meth. 137:167-173 (1991), each of which is incorporated herein by reference).
(§2) Nutrient-containing agar (or agarose) plates were seeded with a selected target microorganism and peptide samples (5-10 μl) were placed into small wells formed in the solid medium. Following an initial incubation interval of 1 to 4 hr, the well-containing layer was overlayed with enriched (2× normal) solid medium in order to support microbial growth outside the perimeter of inhibition. After overnight incubation at 30° C. to 37° C., the antimicrobial activity was quantitated by measuring the clear zones around each well (zone of inhibition).
Microbicidal activity was measured by first incubating the target organism with an indolicidin analog in an aqueous suspension, then plating the suspension to quantitate surviving microorganisms. Cultures were grown to mid log phase in an appropriate medium, harvested, washed, and resuspended to 1-2×10^7 colony forming units (CFU) per ml. To conserve peptide, the incubation volume usually was 0.05 ml, with the final cell concentration being 1-2×10^6CFU/ml. Peptide stock solutions, usually made up in 0.01% acetic acid, were diluted in the incubation buffer to a final concentration of 1 μg/ml to 100 μg/ml, and the incubation was initiated by addition of an appropriate volume of the bacterial or fungal stock suspension to the prewarmed (37° C.) peptide-buffer mixture. At timed intervals, 50 μl or 100 μl samples were removed and diluted serially, then plated on nutrient-containing agar plates. Killing activity was quantitated by determining the reduction in CFU relative to appropriate control incubations.
As for “Indol 1-13/F-Hse: Indol 1-13/F peptide with a carboxy terminal homoserine, produced by cyanogen bromide cleavage (ILPFKFPFFPFRR[hSer])”, the antimicrobial activity result was “have antimicrobial activity”.

As for “Leu-Pro-Phe-Lys-Phe-Pro-Phe-Phe-Pro-Phe-Arg-Arg-NH2 (LPFKFPFFPFRR-NH2) [Indol 2-13/F]”, the antimicrobial activity entry was “exhibits antimicrobial activity”.

Regarding “Leu-Pro-Trp-Lys-Trp-Pro-Trp-Trp-Pro-Trp-Arg-Arg-NH2 (LPWKWPWWPWRR-NH2) [Indol 2-13]”, the antimicrobial activity entry is recorded as “broad spectrum antimicrobial activity; also recorded: exhibits antimicrobial activity”.

On to “Lys-Trp-Pro-Trp-Trp-Pro-Trp-Arg-Arg-NH2 (KWPWWPWRR-NH2) [Indol 5-13]”, for which the antimicrobial activity result is “broad spectrum antimicrobial activity; also recorded: exhibits antimicrobial activity”.

Turning to “Pro-Trp-Lys-Trp-Pro-Trp-Trp-Pro-Trp-Arg-Arg-NH2 (PWKWPWWPWRR-NH2) [Indol 3-13]”, the antimicrobial activity entry is reported as “broad spectrum antimicrobial activity; also recorded: exhibits antimicrobial activity”.

As to “Trp-Lys-Trp-Pro-Trp-Trp-Pro-Trp-Arg-Arg-NH2 (WKWPWWPWRR-NH2) [Indol 4-13]”, the antimicrobial activity result is given as “broad spectrum antimicrobial activity; also recorded: exhibits antimicrobial activity”.

Regarding “[H2N-]Ile-Leu-Pro-Trp-Lys-Trp-Pro-Trp-Trp-Pro-Trp-Arg-Arg-Hse (ILPWKWPWWPWRRX; C-terminal homoserine; MOD_RES (14) Xaa is homoserine (Hse).) [Indol(1-13)-Hse]”, the antimicrobial activity result was “have antimicrobial activity”.

Another assay deals with fungi such as Cryptococcus. Kind of assay: antimicrobial activity against fungi. In kind it is cell-based.
Details: not given
Turning to “Lys-Trp-Pro-Trp-Trp-Pro-Trp-Arg-NH2 (KWPWWPWR-NH2) [Indol 5-12]”, the “antimicrobial activity against fungi such as Cryptococcus” value was “substantial antimicrobial activity”.

Regarding “Pro-Trp-Lys-Trp-Pro-Trp-Trp-Pro-Trp-Arg-NH2 (PWKWPWWPWR-NH2) [Indol 3-12]”, the “antimicrobial activity against fungi such as Cryptococcus” value is on record as “substantial antimicrobial activity”.

Regarding “Trp-Lys-Trp-Pro-Trp-Trp-Pro-Trp-Arg-NH2 (WKWPWWPWR-NH2) [Indol 4-12]”, the “antimicrobial activity against fungi such as Cryptococcus” value is “substantial antimicrobial activity”.

On to “Trp-Pro-Trp-Trp-Pro-Trp-Arg-NH2 (WPWWPWR-NH2) [Indol 6-12]”, for which the “antimicrobial activity against fungi such as Cryptococcus” value is “substantial antimicrobial activity”.

A further assay has as its system Staphylococccus aureus. Kind of assay: agar diffusion assay (zone of inhibition). Format: cell-based. Particulars: S. aureus. On the procedure:
as §1, §2
Consider “[H2N-]Ile-Leu-Pro-Trp-Lys-Trp-Pro-Trp-Trp-Pro-Trp-Arg-Arg-Hse (ILPWKWPWWPWRRX; C-terminal homoserine; MOD_RES (14) Xaa is homoserine (Hse).) [Indol(1-13)-Hse]”, for which the “antimicrobial activity (growth inhibition, zone of inhibition)” value was “antimicrobial activity equivalent to that of synthesized Indol 1-13”.

The values above are taken from patent US6524585B1, “Indolicidin analogs and methods of using same” (The Regents of the University of California, priority 1998, dated 2003).
